Assay results as given in patent US20230263851A1, “PROTECTIVE FORMULATIONS” (priority 2022, published 2023).

System: upside-down jellyfish, family Cassiopeidae
Assay: In vivo field study: perceived stinging sensation after contact with upside-down jellyfish
Details: for Sting score, Upper arm, left: skin location upper arm; for Average Sting Score: average over tested skin locations; for Sting score, Lower arm, left: perceived sting: 0 no sting, compound in SPF15 TeekaTan oil-in-water sunscreen base, skin location lower arm; for Sting score, Left calf: skin location left calf; for Reduction of the stinging sensation (in words): summary of the field study
Protocol: An in-vivo field study was performed using upside-down jellyfish, family Cassiopeidae. Rubidium iodide and dl-menthol were compared to lanthanide salts and another alkali salt, cesium iodide, for their ability to reduce the dermal irritation following contact with stinging Cnidaria. The base formulation was a commercial SPF15 “TeekaTan™” chemical oil-in-water sunscreen. The null was bare skin. The test subjects reported their perceived stinging sensation from the venomous cassiosomes as no sting (score 0), mild sting (score 1), definite sting (score 2).

[1] = 0 no sting, 1 mild sting, 2 definite sting, SPF15 sunscreen base

Question: With `[Cl][Pr]([Cl])[Cl]` [PrCl3, reference compound] as the compound, how does the “Sting score, Upper arm, left” value [1] read?
Answer: 0

Question: And the “Average Sting Score” value [1]?
Answer: 1.00

Question: What about the “Sting score, Lower arm, left” value (1 mild sting, 2 definite sting) of the same compound?
Answer: 2

Question: `CC(C)[C@@H]1CC[C@@H](C)C[C@H]1O` (racemic) [DL-Menthol, DL menthol] was tested. Which “Sting score, Left calf” value [1] did it give?
Answer: 0

Question: And the “Sting score, Left cheek (face)” value (0 no sting, 1 mild sting, 2 definite sting, SPF15 sunscreen base, skin location left cheek (face))?
Answer: 0

Question: And the “Sting score, Left side of chest, underarm” value (0 no sting, 1 mild sting, 2 definite sting, SPF15 sunscreen base, skin location left side of chest, underarm)?
Answer: 0

Question: And the “Sting score, Left side of lips, upper and lower” value (0 no sting, 1 mild sting, 2 definite sting, SPF15 sunscreen base, skin location left side of lips, upper and lower)?
Answer: 0

Question: What about the “Sting score, Right arm joint” value (0 no sting, 1 mild sting, 2 definite sting, SPF15 sunscreen base, skin location right arm joint) of the same compound?
Answer: 0.75

Question: And the “Sting score, Right cheek (face)” value (0 no sting, 1 mild sting, 2 definite sting, SPF15 sunscreen base, skin location right cheek (face))?
Answer: 0

Question: What about the “Sting score, Right side of chest, underarm” value (0 no sting, 1 mild sting, 2 definite sting, SPF15 sunscreen base, skin location right side of chest, underarm) of the same compound?
Answer: 0

Question: And the “Sting score, Stomach” value (0 no sting, 1 mild sting, 2 definite sting, SPF15 sunscreen base, skin location stomach)?
Answer: 0

Question: What about the “Average Sting Score” value [1] of the same compound?
Answer: 0.23

Question: What about the “Sting score, Lower arm, left” value (1 mild sting, 2 definite sting) of the same compound?
Answer: 0

Question: What about the “Reduction of the stinging sensation (in words)” value of the same compound?
Answer: second most effective compound tested

Question: Which results are given for `[I-].[Rb+]` [RuI, rubidium iodide]?
Answer: Sting score, Left arm joint (0 no sting, 1 mild sting, 2 definite sting, SPF15 sunscreen base, skin location left arm joint): 0; Sting score, Left calf [1]: 0; Sting score, Upper arm, left [1]: 0; Average Sting Score [1]: 0.00; Sting score, Lower arm, left (1 mild sting, 2 definite sting): 0

Question: `[Cl][Nd]([Cl])[Cl]` [NdCl3, reference compound] was tested. Which “Average Sting Score” value [1] did it give?
Answer: 2.00

Question: And the “Sting score, Lower arm, left” value (1 mild sting, 2 definite sting)?
Answer: 2

Question: Which results are given for `[Cs+].[I-]` [CsI, cesium iodide, reference compound]?
Answer: Sting score, Upper arm, left [1]: 2; Average Sting Score [1]: 2.00; Reduction of the stinging sensation (in words): did not appreciably reduce the stinging sensation
